Laboratory results: US5235045A, “Non-azo naphthalimide dyes” (priority 1992, dated 1993)
Read-outs that look alike come from different tables or passages of the source.

Tests used:
[1] = test system: Gramacidin D; assay: Effects of 420 nm radiation on liposomal-bound Gramacidin D and DiEd6Br fluorescence; assay type: biochemical; conditions: 100 J/cm^2, 420 nm; for Tryptophan fluorescence ratio irradiated/unirradiated (IT/DT): 0 μM dye 91.23
[2] = test system: H9 cells; assay: Effects on H9 cells of Ed6Br with prior activation by 420 nm light (Trypan Blue); assay type: cell-based; conditions: Homo sapiens, H9, 24 h, read-out: % Viable Cells
Procedure: H9 cells were cultivated in RPMI-1640 medium containing an additional 10% fetal calf serum at 37.5° C. in air having added 5% CO2. A 5.46 ml aliquot of cell suspension containing 9.16×10^5 H9 cells per ml was harvested, the cells sedimented at 450 x g for 10 minutes and resuspended in fresh growth medium. Two hundred microliter aliquots of the suspension were centrifuged as above and the resulting cell pellet served for resuspension in dye plus medium suspension for this study.
Six milliliters of suspension of Cremophor EL micelles containing Ed6Br in RPMI-1640 containing 10% additional fetal calf serum was made by diluting a 2.5 millimeter solution of the dye in Cremophor EL to give an average Ed6Br concentration of […], and the resulting suspension divided into 2 three milliliter aliquots. One aliquot was irradiated with 420 #5 nm light filtered from a xenon arc lamp at an irradiance of 20 mW/cm^2 to a total fluence of 200 J/cm^2. The companion aliquot was wrapped in aluminum foil and handled in identical fashion to the irradiated sample. These two aliquots served as stocks for deforming effects of both previously irradiated and un-irradiated Ed6Br at different concentrations from 0 up to 100 mM on H9 cells kept in the dark. Dulutions of the stock dye suspension into additional fresh growth medium were made within 1 hour of light irradiation to give dye-medium suspensions with average Ed6Br concentrations of […] for both previously irradiated and dark dye samples. The H9 cell pellets were resuspended in these dye-Cremophor EL suspensions and held at 37.5° C. in an air atmosphere containing an additional 5% CO2. After 24 hrs. culture of the number of total and viable […] was determined by Trypan Blue exclusion using a hemocytometer and microscope for cell counting.

[3] = Bleaching in distearoylphosphatidyl choline vesicles; assay type: physicochemical; conditions: irradiated vesicles
Procedure: (§1) The dye was incorporated into synthetic vesicles as described above. The vesicles were irradiated with a 150-W Oriel xenon arc lamp at a distance of 4 cm from the lens at a thermostated temperature of 20° C. The change in fluorescence intensity with time was determined above, and the results plotted as a standard first order plot.

[4] = Binding kinetics of dye to synthetic vesicles (fluorescence increase)
Procedure: All of the vehicles used in these studies were prepared to have a final lipid, egg lecithin+cholesterol concentration of 10 mg/ml. Cholesterol concentrations were varied between 0 and 45 mol % by varying the lipid composition from which the vesicles were produced. The subject dyes were added in 10% aqueous isopropyl alcohol solutions to vesicle suspensions in water. The dyes are non-fluorescent in 10% aqueous isopropy alcohol, but are highly fluorescent in vesicles. The increase in fluorescence was monitored at an excitation wavelength of 460 nm and an emission wavelength of 519 nm. Fluorescence intensity was measured as a function of time, and fit to a standard first-order kinetic plot.

[5] = test system: Herpes simplex virus type 1; assay: Effect of Ed6Br and light on aqueous suspensions of HSV-1 (plaque assay); assay type: cell-based, MacIntyre strain
[6] = test system: Human Herpes Simplex Virus Type I; assay: Photoinduced inactivation of HSV-I, plaque assay (Table 11); assay type: cell-based; conditions: 420±5 nm, 20J/cm^2
[7] = Bleaching kinetics in synthetic vesicles; assay type: physicochemical; conditions: 150-W xenon arc lamp, 20° C.
Procedure: as §1

In the case of `CCCCCCN1C(=O)c2cccc3c(NCCNC(=O)CCCCC(=O)NCCNc4c(Br)cc5c6c(cccc46)C(=O)N(CCCCCC)C5=O)c(Br)cc(c23)C1=O` [Compound XLIV], the “DiEd6Br fluorescence ratio irradiated/unirradiated (ID/DD)” value ([1]; 10 μM) is reported as 5.03%, the “Tryptophan fluorescence ratio irradiated/unirradiated (IT/DT)” value ([1]; 10 μM) is reported as 10.57% and the “DiEd6Br fluorescence ratio irradiated/unirradiated (ID/DD)” value ([1]; 20 μM) is reported as 9.24%. For the same compound, the “Tryptophan fluorescence ratio irradiated/unirradiated (IT/DT)” value ([1]; 20 μM) was 10.77%, the “DiEd6Br fluorescence ratio irradiated/unirradiated (ID/DD)” value ([1]; 50 μM) was 20.26% and the “Tryptophan fluorescence ratio irradiated/unirradiated (IT/DT)” value ([1]; 50 μM) was 14.40%.

`CCCCCCNc1c(Br)cc2c3c(cccc13)C(=O)N(CCCCCC)C2=O` [Compound VII, 3-bromo-4-(hexyl)amino-N-hexyl-1,8-naphthalimide] gave a viability at 1 µM ([2]; no previous light activation) of 72.7%, a viability at 1 µM ([2]; previous light activation) of 68.4% and a viability at 10 µM ([2]; no previous light activation) of 77.2%. It also gave a viability at 10 µM ([2]; previous light activation) of 31.8%, a viability at 25 µM ([2]; no previous light activation) of 57.9% and a viability at 25 µM ([2]; previous light activation) of 4.9%. The viability at 50 µM ([2]; no previous light activation) was 27.4%, the viability at 50 µM ([2]; previous light activation) was 0% and the viability at 75 µM ([2]; no previous light activation) was 33.9%. For the same compound, the viability at 75 µM ([2]; previous light activation) was 0%, the bleaching [3] was “do not bleach” and the “photodegradation of the dye” value [3] was “only very slow photodegradation”. For the same compound, the “rate constant for binding” value ([4]; 0 mol % cholesterol) was 0.814 ± 0.005 × 10^-3 s^-1, the “rate constant for binding” value ([4]; 15 mol % cholesterol) was 1.020 ± 0.005 × 10^-3 s^-1 and the “rate constant for binding” value ([4]; 30 mol % cholesterol) was 1.54 ± 0.02 × 10^-3 s^-1. The “rate constant for binding” value ([4]; 45 mol % cholesterol) was 2.75 ± 0.01 × 10^-3 s^-1, the PFU/ml ([5]; 1.25 μM, irradiated 20 J/cm2, 420 nm) was 0 PFU/ml and the PFU/ml ([5]; 2.5 μM, irradiated 20 J/cm2, 420 nm) was 0 PFU/ml. For the same compound, the PFU/ml ([5]; 5 μM, irradiated 20 J/cm2, 420 nm) was 0 PFU/ml, the PFU/ml ([5]; 10 μM, irradiated 20 J/cm2, 420 nm) was 0 PFU/ml and the PFU/ml ([5]; .078 μM, irradiated 20 J/cm2, 420 nm) was 3.8 × 10^1 PFU/ml. The PFU/ml ([5]; .156 μM, irradiated 20 J/cm2, 420 nm) was 1.8 × 10^1 PFU/ml, the PFU/ml ([5]; .312 μM, irradiated 20 J/cm2, 420 nm) was 7.5 × 10^0 PFU/ml and the PFU/ml ([5]; .625 μM, irradiated 20 J/cm2, 420 nm) was 0 PFU/ml. It also gave a log reduction at 1.25 µM ([5]; Human alphaherpesvirus 1, light or radiation study, 1.25 μM, irradiated 20 J/cm2, 420 nm, read-out: Log10 Reduction) of 5.8, a log reduction at 2.5 µM ([5]; Human alphaherpesvirus 1, light or radiation study, 2.5 μM, irradiated 20 J/cm2, 420 nm, read-out: Log10 Reduction) of 5.8 and a log reduction at 5 µM ([5]; Human alphaherpesvirus 1, light or radiation study, 5 μM, irradiated 20 J/cm2, 420 nm, read-out: Log10 Reduction) of 5.8. It also gave a log reduction at 10 µM ([5]; Human alphaherpesvirus 1, light or radiation study, 10 μM, irradiated 20 J/cm2, 420 nm, read-out: Log10 Reduction) of 5.8, a log reduction at 0.078 µM ([5]; Human alphaherpesvirus 1, light or radiation study, .078 μM, irradiated 20 J/cm2, 420 nm, read-out: Log10 Reduction) of 4.22 and a log reduction at 0.156 µM ([5]; Human alphaherpesvirus 1, light or radiation study, .156 μM, irradiated 20 J/cm2, 420 nm, read-out: Log10 Reduction) of 4.54. The log reduction at 0.312 µM ([5]; Human alphaherpesvirus 1, light or radiation study, .312 μM, irradiated 20 J/cm2, 420 nm, read-out: Log10 Reduction) was 4.92, the log reduction at 0.625 µM ([5]; Human alphaherpesvirus 1, light or radiation study, .625 μM, irradiated 20 J/cm2, 420 nm, read-out: Log10 Reduction) was 5.8 and the “kill of HSV-1” value ([5]; as low as 0.078 mM, 420 nm, 20 J/cm2, 2.5% or less of serum proteins) was > 99.99%. The “Infectivity, Average” value ([6]; 0.078 μM) was 37.5 PFU/ml, the “Infectivity, first PFU/ml column” value ([6]; 0.078 μM) was 45 PFU/ml and the “Infectivity, second PFU/ml column” value ([6]; 0.078 μM) was 30 PFU/ml. The “Infectivity, Average” value ([6]; 0.156 μM) was 17.5 PFU/ml, the “Infectivity, first PFU/ml column” value ([6]; 0.156 μM) was 20 PFU/ml and the “Infectivity, second PFU/ml column” value ([6]; 0.156 μM) was 15 PFU/ml. The “Infectivity, Average” value ([6]; 0.312 μM) was 7.5 PFU/ml, the “Infectivity, first PFU/ml column” value ([6]; 0.312 μM) was 10 PFU/ml and the “Infectivity, second PFU/ml column” value ([6]; 0.312 μM) was 5 PFU/ml. For the same compound, the “Infectivity, Average” value ([6]; 0.625 μM) was 0 PFU/ml, the “Infectivity, first PFU/ml column” value ([6]; 0.625 μM) was 0 PFU/ml and the “Infectivity, Average” value ([6]; 1.25 μM) was 0 PFU/ml. The “Infectivity, first PFU/ml column” value ([6]; 1.25 μM) was 0 PFU/ml, the “Infectivity, second PFU/ml column” value ([6]; 1.25 μM) was 0 PFU/ml and the “Infectivity, Average” value ([6]; 2.5 μM) was 0 PFU/ml. For the same compound, the “Infectivity, first PFU/ml column” value ([6]; 2.5 μM) was 0 PFU/ml, the “Infectivity, second PFU/ml column” value ([6]; 2.5 μM) was 0 PFU/ml and the “Infectivity, Average” value ([6]; 5 μM) was 0 PFU/ml. The “Infectivity, first PFU/ml column” value ([6]; 5 μM) was 0 PFU/ml, the “Infectivity, second PFU/ml column” value ([6]; 5 μM) was 0 PFU/ml and the “Infectivity, Average” value ([6]; 10 μM) was 0 PFU/ml. The “Infectivity, first PFU/ml column” value ([6]; 10 μM) was 0 PFU/ml, the “Infectivity, second PFU/ml column” value ([6]; 10 μM) was 0 PFU/ml and the activity at 0.078 µM ([6]; Human alphaherpesvirus 1, light or radiation study, 0.078 μM, read-out: % Survival) was 0.006%. For the same compound, the log reduction at 0.078 µM ([6]; Human alphaherpesvirus 1, light or radiation study, 0.078 μM, read-out: log10 reduction) was 4.2, the activity at 0.156 µM ([6]; Human alphaherpesvirus 1, light or radiation study, 0.156 μM, read-out: % Survival) was 0.0028% and the log reduction at 0.156 µM ([6]; Human alphaherpesvirus 1, light or radiation study, 0.156 μM, read-out: log10 reduction) was 4.5. For the same compound, the activity at 0.312 µM ([6]; Human alphaherpesvirus 1, light or radiation study, 0.312 μM, read-out: % Survival) was 0.0012%, the log reduction at 0.312 µM ([6]; Human alphaherpesvirus 1, light or radiation study, 0.312 μM, read-out: log10 reduction) was 4.9 and the activity at 0.625 µM ([6]; Human alphaherpesvirus 1, light or radiation study, 0.625 μM, read-out: % Survival) was < 0.0002%. For the same compound, the log reduction at 0.625 µM ([6]; Human alphaherpesvirus 1, light or radiation study, 0.625 μM, read-out: log10 reduction) was > 5.7, the activity at 1.25 µM ([6]; Human alphaherpesvirus 1, light or radiation study, 1.25 μM, read-out: % Survival) was < 0.0002% and the log reduction at 1.25 µM ([6]; Human alphaherpesvirus 1, light or radiation study, 1.25 μM, read-out: log10 reduction) was > 5.7. For the same compound, the activity at 2.5 µM ([6]; Human alphaherpesvirus 1, light or radiation study, 2.5 μM, read-out: % Survival) was < 0.0002%, the log reduction at 2.5 µM ([6]; Human alphaherpesvirus 1, light or radiation study, 2.5 μM, read-out: log10 reduction) was > 5.7 and the activity at 5 µM ([6]; Human alphaherpesvirus 1, light or radiation study, 5 μM, read-out: % Survival) was < 0.0002%. For the same compound, the log reduction at 5 µM ([6]; Human alphaherpesvirus 1, light or radiation study, 5 μM, read-out: log10 reduction) was > 5.7, the activity at 10 µM ([6]; Human alphaherpesvirus 1, light or radiation study, 10 μM, read-out: % Survival) was < 0.0002% and the log reduction at 10 µM ([6]; Human alphaherpesvirus 1, light or radiation study, 10 μM, read-out: log10 reduction) was > 5.7. For the same compound, the “rate constant for bleaching” value ([7]; 0 mol % cholesterol) was 1.08 ± 0.08 × 10^-3 s^-1, the “rate constant for bleaching” value ([7]; 15 mol % cholesterol) was 2.00 ± 0.13 × 10^-3 s^-1 and the “rate constant for bleaching” value ([7]; 30 mol % cholesterol) was 3.08 ± 0.20 × 10^-3 s^-1. The “rate constant for bleaching” value ([7]; 45 mol % cholesterol) was 3.1 ± 0.9 × 10^-3 s^-1.
